Test system: vascular smooth muscle
Test: inhibition of calcium induced contraction of tracheal smooth muscle or vascular tissue (segments of vascular smooth muscle in a tissue bath, depolarized, 0.1 mM calcium chloride re-added)
Type: cell-based, male Sprague-Dawley rats
Settings: Rattus norvegicus; 10^-7 M; second contraction vs initial contraction
Protocol: The property may be observed in a test in which segments of vascular smooth muscle obtained from male Sprague-Dawley rats are suspended in physiological salt solution in a tissue bath instrumented for recording contractions. After the tissue has been equilibrated, washed in calcium-free physiological salt solution and depolarized, 0.1 mM calcium chloride is re-added to induce contraction. After the contraction has reached a plateau, tissues are washed and a test compound or vehicle is added to determine the effect on a second contraction achieved by the above cyclic protocol. From measuring the initial contraction as well as the second contraction in the presence of the first compound, the extent of inhibition may be calculated.

Row | Compound | inhibition at 0.1 µM [%]
1 | COc1cc(C=CCN2CCC(C3c4ccccc4C=Cc4ccccc43)CC2)cc(OC)c1OC [4-(5H-Dibenzo[a,d]cyclohepten-5-yl)-1-(3-(3,4,5-trimethoxyphenyl)prop-2-en-1-yl)piperidine] | 68
2 | CN(C)c1ccc(CN2CCC(C3c4ccccc4C=Cc4ccccc43)CC2)cc1 [4-(5H-Dibenzo[a,d]cyclohepten-5-yl)-1-(4-dimethylaminobenzyl)piperidine] | 69
3 | C(=Cc1ccccc1)CN1CCC(C2c3ccccc3C=Cc3ccccc32)CC1 [4-(5H-Dibenzo[a,d]cyclohepten-5-yl)-1-cinnamylpiperidine] | 70

Reference: patent US4758577A, “4-(5H-dibenzo[a,d]cyclohepten-5-yl)piperidine compounds for treating cardiovascular disorders” (Merck & Co., Inc., priority 1984, dated 1988)
